Like-named read-outs stand apart in the source and are kept apart here.
Assays:
α4β1 integrin receptor = molecular target: T1, α4β1 integrin receptor (Homo sapiens, UniProt P05556+P13612); test: Ramos Cell Adhesion Assay (α4β1 Mediated Adhesion/VCAM-1); type: cell-based
T1 construct: Ramos Cell Adhesion Assay (α4β1 Mediated Adhesion/VCAM-1); endogenous in cells; host or cells: Ramos cells
Experimental: Ramos Cell Adhesion Assay (α4β1 Mediated Adhesion/VCAM-1)
(§1) Immulon 96 well plates (Dynex) were coated with 100 μL recombinant hVCAM-1 at 4.0 μg/mL in 0.05 M NaCO3 buffer pH 9.0 overnight at 4° C. (R&D Systems). Plates were washed 3 times in PBS with 1% BSA and blocked for 1 h @ room temperature in this buffer. PBS was removed and compounds to be tested (50 μL) were added at 2× concentration. Ramos cells, (50 μL at 2×10^6/mL) labeled with 5 μM Calcein AM (Molecular Probes) for 1 h at 37° C., were added to each well and allowed to adhere for 1 h at room temperature. Plates were washed 3× in PBS+1% BSA and cells were lysed for 15 minutes in 100 μL of 1 M Tris pH 8.0 with 1% SDS. The plate was read at 485 nm excitation and 530 nm emission.

human α4β7 = molecular target: T2, human α4β7 (Homo sapiens, UniProt P13612+P26010); test: α4β7-K562 Cell Adhesion Assay (α4β7 Mediated Adhesion/VCAM-1); type: cell-based
T2 construct: expressed in transfected cells
T2 sequence (P13612 34-1032): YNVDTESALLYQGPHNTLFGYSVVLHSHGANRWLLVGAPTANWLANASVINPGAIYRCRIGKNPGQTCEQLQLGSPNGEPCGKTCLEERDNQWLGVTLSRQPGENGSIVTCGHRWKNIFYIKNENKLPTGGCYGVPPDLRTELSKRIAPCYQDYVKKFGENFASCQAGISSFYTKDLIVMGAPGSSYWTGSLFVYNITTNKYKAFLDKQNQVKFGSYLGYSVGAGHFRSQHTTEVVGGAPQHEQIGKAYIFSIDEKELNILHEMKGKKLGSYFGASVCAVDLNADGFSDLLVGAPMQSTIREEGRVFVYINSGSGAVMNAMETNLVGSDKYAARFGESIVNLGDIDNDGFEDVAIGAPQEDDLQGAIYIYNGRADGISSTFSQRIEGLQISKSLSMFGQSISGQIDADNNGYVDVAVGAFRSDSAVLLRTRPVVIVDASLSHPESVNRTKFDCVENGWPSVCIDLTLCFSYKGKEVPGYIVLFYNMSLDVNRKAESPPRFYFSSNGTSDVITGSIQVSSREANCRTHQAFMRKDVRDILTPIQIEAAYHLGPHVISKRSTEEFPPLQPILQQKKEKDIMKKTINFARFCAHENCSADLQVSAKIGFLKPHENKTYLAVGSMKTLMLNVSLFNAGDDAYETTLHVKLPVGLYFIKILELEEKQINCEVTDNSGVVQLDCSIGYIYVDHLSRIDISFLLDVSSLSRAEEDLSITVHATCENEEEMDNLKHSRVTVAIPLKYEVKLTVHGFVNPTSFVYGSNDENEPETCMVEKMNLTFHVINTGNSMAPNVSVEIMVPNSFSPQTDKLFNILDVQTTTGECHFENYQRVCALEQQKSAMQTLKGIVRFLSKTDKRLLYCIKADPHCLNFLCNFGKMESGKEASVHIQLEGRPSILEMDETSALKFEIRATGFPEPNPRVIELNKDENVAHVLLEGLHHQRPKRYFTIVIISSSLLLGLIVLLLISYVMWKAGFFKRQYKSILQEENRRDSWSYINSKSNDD
T2 sequence (P26010 20-798): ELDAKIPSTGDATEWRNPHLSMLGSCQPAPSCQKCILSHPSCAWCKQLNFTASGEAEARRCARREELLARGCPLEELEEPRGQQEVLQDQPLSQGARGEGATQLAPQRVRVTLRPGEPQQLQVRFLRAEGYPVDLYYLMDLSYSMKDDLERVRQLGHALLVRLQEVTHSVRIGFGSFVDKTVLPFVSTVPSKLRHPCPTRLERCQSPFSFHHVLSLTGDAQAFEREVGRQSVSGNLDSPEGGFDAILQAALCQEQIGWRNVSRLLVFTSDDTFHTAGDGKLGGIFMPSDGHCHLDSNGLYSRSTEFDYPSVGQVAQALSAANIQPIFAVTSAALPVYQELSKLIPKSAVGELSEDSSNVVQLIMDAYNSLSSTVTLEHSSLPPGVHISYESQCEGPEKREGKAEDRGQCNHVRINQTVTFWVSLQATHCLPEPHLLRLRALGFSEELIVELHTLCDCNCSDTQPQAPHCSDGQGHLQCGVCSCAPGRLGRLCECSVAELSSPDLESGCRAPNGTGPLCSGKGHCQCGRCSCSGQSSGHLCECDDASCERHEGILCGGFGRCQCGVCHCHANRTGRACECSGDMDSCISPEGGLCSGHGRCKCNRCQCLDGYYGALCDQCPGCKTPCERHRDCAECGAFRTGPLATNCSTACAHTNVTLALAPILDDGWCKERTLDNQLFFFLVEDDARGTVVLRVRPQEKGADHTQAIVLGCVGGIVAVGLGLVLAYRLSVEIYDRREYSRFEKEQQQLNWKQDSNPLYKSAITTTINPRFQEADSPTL
Experimental: α4β7-K562 Cell Adhesion Assay (α4β7 Mediated Adhesion/VCAM-1)
as §1, with “A stable cell line of K562 cells expressing human α4β7,” for “Ramos cells,”

[1] = Table III, μM, read-out: Inhibition of Binding of Ramos Cells to Immobilized VCAM-1 IC50
[2] = Table IV, μM, read-out: Inhibition of Binding of K562 Cells to Immobilized VCAM-1 IC50
[3] = Table III, read-out: Inhibition of Binding of Ramos Cells to Immobilized VCAM-1 IC50
[4] = Table IV, read-out: Inhibition of Binding of K562 Cells to Immobilized VCAM-1 IC50
[5] = Table I, racemic mixtures and resolved (S,S) and (R,S) diastereomers, read-out: Antagonist IC50 Activity α4β1
[6] = Table I, racemic mixtures and resolved (S,S) and (R,S) diastereomers, read-out: Antagonist IC50 Activity α4β7

T1 sequence (P05556 21-798, one chain of several): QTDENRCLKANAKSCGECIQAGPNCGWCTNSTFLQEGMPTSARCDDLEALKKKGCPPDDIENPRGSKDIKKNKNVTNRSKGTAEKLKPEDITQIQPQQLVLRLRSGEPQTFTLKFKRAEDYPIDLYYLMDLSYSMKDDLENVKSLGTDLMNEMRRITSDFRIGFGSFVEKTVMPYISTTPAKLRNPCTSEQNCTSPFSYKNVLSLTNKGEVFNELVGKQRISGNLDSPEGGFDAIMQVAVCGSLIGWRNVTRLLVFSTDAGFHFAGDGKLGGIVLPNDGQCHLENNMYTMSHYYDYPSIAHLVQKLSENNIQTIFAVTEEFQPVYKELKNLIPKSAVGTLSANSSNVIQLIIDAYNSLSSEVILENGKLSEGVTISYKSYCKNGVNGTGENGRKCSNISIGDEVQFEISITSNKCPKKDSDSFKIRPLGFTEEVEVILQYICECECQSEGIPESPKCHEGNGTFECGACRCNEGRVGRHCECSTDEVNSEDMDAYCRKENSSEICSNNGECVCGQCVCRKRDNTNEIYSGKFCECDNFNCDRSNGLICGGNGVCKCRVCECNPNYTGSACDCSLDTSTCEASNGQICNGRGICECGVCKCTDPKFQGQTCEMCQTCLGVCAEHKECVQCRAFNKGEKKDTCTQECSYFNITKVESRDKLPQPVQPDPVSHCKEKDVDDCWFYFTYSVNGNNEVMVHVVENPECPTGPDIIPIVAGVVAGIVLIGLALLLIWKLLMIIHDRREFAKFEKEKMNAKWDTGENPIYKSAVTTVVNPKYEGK

Structure (SMILES)	IC50 (α4β1 integrin receptor; [1]) [µM]	IC50 (human α4β7; [2]) [µM]	IC50 (α4β1 integrin receptor; [3]) [µM]	IC50 (human α4β7; [4]) [µM]	IC50 (α4β1 integrin receptor; [5]) [µM]	IC50 (human α4β7; [6]) [µM]
Cc1ccc(S(=O)(=O)N2C3CCC(CC3)C2C(=O)N[C@@H](Cc2ccc(NC(=O)Cc3c(Cl)cccc3Cl)cc2)C(=O)O)cc1 (stereo partly drawn) [Cpd 27, 4-[[(2,6-dichlorophenyl)acetyl]amino]-N-[[2-[(4-methylphenyl)sulfonyl]-2-azabicyclo[2.2.2]oct-3-yl]carbonyl]-L-phenylalanine]	–	> 10	1.09	–	–	–
CN(C(=O)[C@H]1C2CCC(CC2)N1S(=O)(=O)c1ccccc1)[C@@H](Cc1ccc(NC(=O)c2c(Cl)cccc2Cl)cc1)C(=O)O [Cpd 39, 4-[(2,6-dichlorobenzoyl)amino]-N-methyl-N-[[(3R)-2-(phenylsulfonyl)-2-azabicyclo[2.2.2]oct-3-yl]carbonyl]-L-phenylalanine]	> 5	> 10	–	–	–	–
COc1cccc(OC)c1C(=O)Nc1ccc(C[C@H](NC(=O)[C@H]2C3CCC(C3)N2S(=O)(=O)c2ccccc2)C(=O)O)cc1 (stereo partly drawn) [Cpd 19b, 4-[(2,6-dimethoxybenzoyl)amino]-N-[[(3R)-2-(phenylsulfonyl)-2-azabicyclo[2.2.1]hept-3-yl]carbonyl]-L-phenylalanine]	–	–	1.21	–	1.21	3.22
COc1cccc(OC)c1-c1ccc(C[C@H](NC(=O)[C@H]2C3CCC(CC3)N2S(=O)(=O)c2ccc(C)cc2)C(=O)O)cc1 [Cpd 18a, 4-(2,6-dimethoxyphenyl)-N-[[(3R)-2-[(4-methylphenyl)sulfonyl]-2-azabicyclo[2.2.2]oct-3-yl]carbonyl]-L-phenylalanine]	–	–	0.857	–	0.857	9
COc1ccc(OC)c(C(=O)c2ccc(C(=O)Nc3ccc(C[C@H](NC(=O)C4C5CCC(CC5)N4S(=O)(=O)c4ccc(C)cc4)C(=O)O)cc3)cc2)c1 (stereo partly drawn) [Cpd 26, 4-[[4-(2,5-dimethoxybenzoyl)benzoyl]amino]-N-[[2-[(4-methylphenyl)sulfonyl]-2-azabicyclo[2.2.2]oct-3-yl]carbonyl]-L-phenylalanine]	–	> 10	0.669	–	–	–
Cc1ccc(S(=O)(=O)N2C3CCC(CC3)C2C(=O)N[C@@H](Cc2ccc(NC(=O)c3ccccc3)cc2)C(=O)O)cc1 (stereo partly drawn) [Cpd 25, 4-(benzoylamino)-N-[[2-[(4-methylphenyl)sulfonyl]-2-azabicyclo[2.2.2]oct-3-yl]carbonyl]-L-phenylalanine]	–	> 10	0.903	–	–	–
O=C(N[C@@H](Cc1ccc(OCc2c(Cl)cccc2Cl)cc1)C(=O)O)C1C2C=CC(CC2)N1S(=O)(=O)c1ccccc1 (stereo partly drawn) [Cpd 40, O-[(2,6-dichlorophenyl)methyl]-N-[[2-(phenylsulfonyl)-2-azabicyclo[2.2.2]oct-5-en-3-yl]carbonyl]-L-tyrosine]	–	–	0.293	2.51	–	–
O=C(O)[C@H](Cc1ccc(OCc2c(Cl)cccc2Cl)cc1)NC(=O)[C@H]1C2CCC(CC2)N1S(=O)(=O)c1ccccc1 [Cpd 41, O-[(2,6-dichlorophenyl)methyl]-N-[[(3R)-2-(phenylsulfonyl)-2-azabicyclo[2.2.2]oct-3-yl]carbonyl]-L-tyrosine]	> 5	> 10	–	–	–	–

Continued, values first:

IC50 (α4β1 integrin receptor; [1]) [µM]	IC50 (human α4β7; [2]) [µM]	IC50 (α4β1 integrin receptor; [3]) [µM]	IC50 (human α4β7; [4]) [µM]	IC50 (α4β1 integrin receptor; [5]) [µM]	IC50 (human α4β7; [6]) [µM]	Structure (SMILES)
> 5	> 10	–	–	–	–	O=C(O)c1ccccc1C(=O)Nc1ccc(C[C@H](NC(=O)[C@@H]2C3CCC(CC3)N2S(=O)(=O)c2ccccc2)C(=O)O)cc1 [Cpd 48, 4-[(2-carboxybenzoyl)amino]-N-[[(3S)-2-(phenylsulfonyl)-2-azabicyclo[2.2.2]oct-3-yl]carbonyl]-L-phenylalanine]
–	–	0.055	0.81	–	–	O=C(Nc1ccc(C[C@H](NC(=O)C2C3CCC(CC3)N2S(=O)(=O)c2ccccc2)C(=O)O)cc1)c1ccncc1 (stereo partly drawn) [Cpd 50, 4-[(4-pyridinylcarbonyl)amino]-N-[[2-(phenylsulfonyl)-2-azabicyclo[2.2.2]oct-3-yl]carbonyl]-L-phenylalanine]
> 5	> 10	–	–	–	–	Cc1ccc(C)n1-c1ccc(C[C@H](NC(=O)C2C3CCC(CC3)N2S(=O)(=O)c2ccccc2)C(=O)O)cc1 (stereo partly drawn) [Cpd 49, 4-(2,5-dimethyl-1H-pyrrol-1-yl)-N-[[2-(phenylsulfonyl)-2-azabicyclo[2.2.2]oct-3-yl]carbonyl]-L-phenylalanine]
> 5	> 10	–	–	–	–	O=C(O)C(Cc1ccc(OCc2c(Cl)cccc2Cl)c(F)c1)NC(=O)C1C2CCC(CC2)N1S(=O)(=O)c1ccccc1 (centres unmarked) [Cpd 62]
–	–	0.193	0.394	–	–	CCOc1ccc2ccccc2c1C(=O)Nc1ccc(C[C@H](NC(=O)[C@@H]2C3CCC(CC3)N2S(=O)(=O)c2ccccc2)C(=O)O)cc1 [Cpd 65, 4-[[(2-ethoxy-1-naphthalenyl)carbonyl]amino]-N-[[(3S)-2-(phenylsulfonyl)-2-azabicyclo[2.2.2]oct-3-yl]carbonyl]-L-phenylalanine]
–	–	0.026	–	0.026	0.102	O=C(O)[C@H](Cc1ccc(N2C(=O)c3ccccc3C2=O)cc1)NC(=O)[C@@H]1C2CCC(CC2)N1S(=O)(=O)c1ccccc1 [Cpd 47a, 4-(1,3-dihydro-1,3-dioxo-2H-isoindol-2-yl)-N-[[(3S)-2-(phenylsulfonyl)-2-azabicyclo[2.2.2]oct-3-yl]carbonyl]-L-phenylalanine]
–	–	0.022	0.279	–	–	O=C(Nc1ccc(C[C@H](NC(=O)C2C3C=CC(CC3)N2S(=O)(=O)c2ccccc2)C(=O)O)cc1)c1c(Cl)cccc1Cl (stereo partly drawn) [Cpd 42, 4-[(2,6-dichlorobenzoyl)amino]-N-[[2-(phenylsulfonyl)-2-azabicyclo[2.2.2]oct-5-en-3-yl]carbonyl]-L-phenylalanine]
–	> 5	0.784	–	–	–	O=C(N[C@@H](Cc1ccc(NS(=O)(=O)c2c(Cl)cccc2Cl)cc1)C(=O)O)C1C2CCC(CC2)N1S(=O)(=O)c1ccccc1 (stereo partly drawn) [Cpd 51, 4-[[(2,6-dichlorophenyl)sulfonyl]amino]-N-[[2-(phenylsulfonyl)-2-azabicyclo[2.2.2]oct-3-yl]carbonyl]-L-phenylalanine]
